According to patent publication US11453703B2, “Heterotandem bicyclic peptide complexes” (BicycleTX Limited, priority 2018, dated 2022):

What was measured:
[1] = biological target: human EphA2 protein (Homo sapiens, UniProt P29317); assay: EphA2 Biacore (SPR) binding assay; conditions: biotinylated human EphA2, 25° C.
Method: Biacore experiments were performed to determine ka (M^−1s^−1), kd (s^−1), KD (nM) values of heterotandem peptides binding to human EphA2 protein.
EphA2 were biotinylated with EZ-Link™ Sulfo-NHS-LC-Biotin for 1 hour in 4 mM sodium acetate, 100 mM NaCl, pH 5.4 with a 3× molar excess of biotin over protein. The degree of labelling was determined using a Fluorescence Biotin Quantification Kit (Thermo) after dialysis of the reaction mixture into PBS. For analysis of peptide binding, a Biacore T200 instrument was used with a XanTec CMD500D chip. Streptavidin was immobilized on the chip using standard amine-coupling chemistry at 25° C. with HBS-N (10 mM HEPES, 0.15 M NaCl, pH 7.4) as the running buffer. Briefly, the carboxymethyl dextran surface was activated with a 7 min injection of a 1:1 ratio of 0.4 M 1-ethyl-3-(3-dimethylaminopropyl) carbodiimide hydrochloride (EDC)/0.1 M N-hydroxy succinimide (NHS) at a flow rate of 10 it/min. For capture of streptavidin, the protein was diluted to 0.2 mg/ml in 10 mM sodium acetate (pH 4.5) and captured by injecting 120 μl onto the activated chip surface. Residual activated groups were blocked with a 7 min injection of 1 M ethanolamine (pH 8.5):HBS-N (1:1). Buffer was changed to PBS/0.05% Tween 20 and biotinylated EphA2 was captured to a level of 500-1500 RU using a dilution of protein to 0.2 μM in buffer. A dilution series of the peptides was prepared in this buffer with a final DMSO concentration of 0.5% with a top peptide concentration was 50 or 100 nM and 6 further 2-fold dilutions. The SPR analysis was run at 25° C. at a flow rate of 90 μl/min with 60 seconds association and 900-1200 seconds dissociation. Data were corrected for DMSO excluded volume effects. All data were double-referenced for blank injections and reference surface using standard processing procedures and data processing and kinetic fitting were performed using Scrubber software, version 2.0c (BioLogic Software). Data were fitted using simple 1:1 binding model allowing for mass transport effects where appropriate.

[2] = biological target: T1, CD137 (Homo sapiens, UniProt Q07011); assay: CD137 Biacore (SPR) binding assay; parameters: purchased R&D systems; conditions: biotinylated human CD137, 25° C.
Outline: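 Biotinylated human CD137 captured (270-1500 RU) on streptavidin-coupled dextran chip; peptides up to 500 nM in PBS/0.05% Tween 20, 0.5% DMSO, at 25°C, 60 s association, 900 s dissociation. Double-referenced data fitted to 1:1 binding model, with mass transport where appropriate.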

[3] = biological target: T1, CD137; assay: CD137 reporter assay, co-culture with EphA2 tumour cells; format: cell-based; parameters: host or cells: Jurkat reporter cells; conditions: tumour target EphA2, co-culture with SC-OV-3, 6 h
Outline: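 Jurkat CD137 reporter cells co-cultured with tumour cells and serially diluted test articles in RPMI-1640 + 1% FBS, 6 h at 37 °C, 5% CO2. Luminescence read after Bio-Glo; fold change over cells-only background fitted log(agonist) vs response for EC50 (nM) and maximal fold induction.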

[4] = tested on: human PBMC co-cultured with 4T1-D02 (Nectin4+); assay: Human PBMC-4T1 co-culture (cytokine release) assay; format: cell-based; conditions: anti-CD3 stimulated PBMC, 48 hours
Method: Mouse mammary gland tumor cell line 4T1-1 (4T1-Parental) and murine Nectin-4 overexpressing 4T1 (4T1-D02) were cultured in RPMI1640 supplemented with 10% heat-inactivated Fetal Bovine Serum, 100 I.U/ml Penicillin and 100 I.U/Streptomycin, 20 mM HEPES, 1× Non-Essential Amino Acids, and 2 mM L-Glutamine (RPMI working medium). Frozen PBMCs from healthy human donors were thawed and washed one time in room temperature PBS, and then resuspended in RPMI working medium. For tumor cell and PBMC co-culture, 10000 PBMCs and 2000 tumor cells (5:1) were mixed and plated in each well of a 384 well plate. For stimulating human PBMCs, 125 ng/ml of soluble anti-CD3 mAb (clone OKT3) was added to the culture on day 0. Test, control compounds or vehicle controls were added to respective wells and brought the final volume per well to 100u1. Plates were incubated in a 37° C. cell culture incubator with 5% CO2 for up to three days. Supernatants were collected 48 hours after stimulation, and human IL-2 and IFFγ were detected using HTRF assays. Raw data were analyzed using Excel or Prism software to generate standard curves to interpolate protein concentrations. Data represents one study with three different donor PBMC tested in experimental duplicates.

[5] = Pharmacokinetics of CD137 bispecifics in SD rats; format: in vivo; conditions: male, Sprague-Dawley (SD), SD Rat, 2 mg/kg IV, plasma
Method: Male SD Rats were dosed with 2 mg/kg of each Bicycle multimer formulated in 25 mM Histidine HCl, 10% sucrose pH 7. Serial bleeding (about 80 μL blood/time point) was performed via submadibular or saphenous vein at each time point. All blood samples were immediately transferred into prechilled microcentrifuge tubes containing 2 μL K2-EDTA (0.5M) as anti-coagulant and placed on wet ice. Blood samples were immediately processed for plasma by centrifugation at approximately 4° C., 3000 g. The precipitant including internal standard was immediately added into the plasma, mixed well and centrifuged at 12,000 rpm, 4° C. for 10 minutes. The supernatant was transferred into pre-labeled polypropylene microcentrifuge tubes, and then quick-frozen over dry ice. The samples were stored at […] or below as needed until analysis. 7.5 μL of the supernatant samples were directly injected for LC-MS/MS analysis using an Orbitrap Q Exactive in positive ion mode to determine the concentrations of Bicycle multimer. Plasma concentration versus time data were analyzed by non-compartmental approaches using the Phoenix WinNonlin 6.3 software program. C0, CI, Vdss, T½, AUC(0-last), AUC(0-inf), MRT(0-last), MRT(0-inf) and graphs of plasma concentration versus time profile were reported.

[6] = biological target: T1, CD137; assay: CD137 reporter assay, co-culture with Nectin-4 tumour cells; format: cell-based; parameters: host or cells: Jurkat reporter cells; conditions: tumour target Nectin4, co-culture with H1376, 6 h;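 note: jurkat reporter cells co-cultured with tumour cells and test article for 6 h, luminescence signal relative to Jurkat plus tumour cells lacking test article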

T1 sequence (Q07011 24-255): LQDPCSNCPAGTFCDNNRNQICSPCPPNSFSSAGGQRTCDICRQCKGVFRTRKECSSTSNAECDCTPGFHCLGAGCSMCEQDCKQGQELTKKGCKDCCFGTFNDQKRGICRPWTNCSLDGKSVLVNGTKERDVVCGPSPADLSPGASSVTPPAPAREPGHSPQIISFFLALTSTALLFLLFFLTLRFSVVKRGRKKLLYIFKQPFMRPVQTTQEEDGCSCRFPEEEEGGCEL
Chain of human EphA2 protein (P29317 24-976): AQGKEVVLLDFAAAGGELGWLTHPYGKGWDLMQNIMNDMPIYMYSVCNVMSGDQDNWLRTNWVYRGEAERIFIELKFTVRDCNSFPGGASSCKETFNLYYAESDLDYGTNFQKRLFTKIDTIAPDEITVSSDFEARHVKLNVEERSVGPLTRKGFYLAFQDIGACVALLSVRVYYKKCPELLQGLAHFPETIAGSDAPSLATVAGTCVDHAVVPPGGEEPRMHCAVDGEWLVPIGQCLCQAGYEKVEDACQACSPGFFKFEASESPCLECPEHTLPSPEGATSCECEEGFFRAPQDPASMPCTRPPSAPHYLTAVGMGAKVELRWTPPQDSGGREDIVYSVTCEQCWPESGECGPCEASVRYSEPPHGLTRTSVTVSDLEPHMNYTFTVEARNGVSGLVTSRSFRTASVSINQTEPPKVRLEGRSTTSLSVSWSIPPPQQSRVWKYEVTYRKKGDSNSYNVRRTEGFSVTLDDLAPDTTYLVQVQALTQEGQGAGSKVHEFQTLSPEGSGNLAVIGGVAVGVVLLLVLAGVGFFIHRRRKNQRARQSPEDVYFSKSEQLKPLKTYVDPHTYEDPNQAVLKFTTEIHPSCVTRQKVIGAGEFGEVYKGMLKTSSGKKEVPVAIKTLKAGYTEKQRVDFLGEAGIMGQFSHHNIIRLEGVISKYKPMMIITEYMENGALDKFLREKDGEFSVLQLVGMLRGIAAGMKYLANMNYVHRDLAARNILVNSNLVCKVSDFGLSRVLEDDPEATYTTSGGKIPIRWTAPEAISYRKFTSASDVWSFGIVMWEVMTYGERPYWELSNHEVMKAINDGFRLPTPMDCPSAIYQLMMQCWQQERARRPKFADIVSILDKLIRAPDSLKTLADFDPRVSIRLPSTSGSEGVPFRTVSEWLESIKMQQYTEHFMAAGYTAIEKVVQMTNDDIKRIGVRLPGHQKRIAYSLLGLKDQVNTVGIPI

Structure (SMILES) | Kd [1] [nM] | Kd [2] [nM] | EC50 [3] [nM] | Fold Induction over Background [3] [fold] | EC50 ([4]; IFN-γ secretion) [nM] | max IFN-y [4] [pg/mL] | clearance ([5]; read-out: Clp) [mL/min/kg] | half-life ([5]; read-out: T½ (converted)) [min] | Vd ([5]; read-out: Vdss) [L/kg] | Fold Induction over Background [6] [fold]
CCCC[C@@H]1NC(=O)[C@H](Cc2ccc(O)cc2)NC(=O)[C@@H]2CCCN2C(=O)[C@H](CC(=O)O)NC(=O)[C@H](C)NC(=O)[C@H](Cc2ccccc2)NC(=O)[C@@H]2CSCCC(=O)N3CN(CN(C3)C(=O)CCSC[C@@H](C(=O)N[C@@H](CNC(=O)CCc3cn(CCOCCOCCOCCOCCOCCNC(=O)NCCC(=O)N(C)CC(=O)N(C)CC(=O)N(C)CC(=O)N(C)CC(=O)N(C)CC(=O)N(C)CC(=O)N(C)CC(=O)N(C)CC(=O)N(C)CC(=O)N(C)CC(=O)N[C@@H](C)C(=O)N[C@@H](CCCCNC(=N)N)C(=O)N[C@@H](CC(=O)O)C(=O)N[C@H]4CSCCC(=O)N5CN6CN(C5)C(=O)CCSC[C@H](NC(=O)[C@H](CC(C)C)NC(=O)[C@@H]5CCCN5C(=O)[C@H](CC(N)=O)NC(=O)[C@H](C(C)C)NC(=O)[C@H](CC(C)C)NC(=O)[C@@H]5C[C@@H](O)CN5C4=O)C(=O)N[C@@H](CC(C)C)C(=O)N[C@@H](Cc4c[nH]cn4)C(=O)N4CCC[C@H]4C(=O)N[C@H](CC(=O)O)C(=O)N[C@@H](Cc4c[nH]c5ccccc45)C(=O)N[C@@H](CCCCNC(=N)N)C(=O)N[C@H](C(N)=O)CSCCC6=O)nn3)C(N)=O)NC1=O)C(=O)CCSC[C@H](NC(=O)[C@H](C)NC(C)=O)C(=O)N[C@@H]([C@@H](C)CC)C(=O)N[C@@H](CCC(=O)O)C(=O)N[C@@H](CCC(=O)O)C(=O)NCC(=O)N[C@@H](CCC(N)=O)C(=O)N[C@@H](Cc1ccc(O)cc1)C(=O)N2 [BCY9659] | 1.03 | 88.1 | 9.9 | 7 |  |  |  |  |  | 
CCCC[C@@H]1NC(=O)[C@H](Cc2ccc(O)cc2)NC(=O)[C@@H]2CCCN2C(=O)[C@H](CC(=O)O)NC(=O)[C@H](C)NC(=O)[C@H](Cc2ccccc2)NC(=O)[C@@H]2CSCCC(=O)N3CN(CN(C3)C(=O)CCSC[C@@H](C(=O)N[C@@H](CNC(=O)CCOCCOCCOCCOCCOCCOCCOCCOCCOCCOCCOCCOCCn3cc(CCC(=O)NCCC(=O)N(C)CC(=O)N(C)CC(=O)N(C)CC(=O)N(C)CC(=O)N(C)CC(=O)N(C)CC(=O)N(C)CC(=O)N(C)CC(=O)N(C)CC(=O)N(C)CC(=O)N[C@H]4CSCCC(=O)N5CN6CN(C5)C(=O)CCSC[C@H](NC(=O)[C@@H](CC(=O)O)NC(=O)[C@H](Cc5cccc7ccccc57)NC(=O)[C@@H]5CCCN5C4=O)C(=O)N[C@@H](CCSC)C(=O)N[C@@H](CCCCNC(=N)N)C(=O)N[C@@H](CC(=O)O)C(=O)N[C@@H](Cc4c[nH]c5ccccc45)C(=O)N[C@@H](CO)C(=O)N[C@@H]([C@@H](C)O)C(=O)N4CCC[C@H]4C(=O)N4C[C@H](O)C[C@H]4C(=O)N[C@@H](Cc4c[nH]c5ccccc45)C(=O)N[C@H](C(N)=O)CSCCC6=O)nn3)C(N)=O)NC1=O)C(=O)CCSC[C@H](NC(C)=O)C(=O)N[C@@H](CC(C)(C)C)C(=O)N1CCC[C@H]1C(=O)N[C@@H](CCC(=O)O)C(=O)N[C@H](C)C(=O)N1CCC[C@H]1C(=O)N[C@@H](Cc1ccc(O)cc1)C(=O)N2 [BCY10000] |  |  |  |  | 0.21 | 19642 | 16.1 | 21.4 | 0.395 | 61
